{"source": "ChEMBL document CHEMBL4376834", "about": "“Discovery of 4H-Chromen-4-one Derivatives as a New Class of Selective Rho Kinase (ROCK) Inhibitors, which Showed Potent Activity in ex Vivo Diabetic Retinopathy Models” (J Med Chem, 2019)", "key": {"[1]": {"biological_target": "Dual specificity protein kinase TTK (Homo sapiens, UniProt P33981, S389A)", "assay": "Inhibition of recombinant full-length human TTK S389A mutant using MBP as substrate incubated for 40 mins in presence of [gamma33P]ATP by radiometric scintillation counting analysis"}, "[2]": {"assay": "Inhibition of recombinant human MARK1 V16E/T20S double mutant (2 to end residues) using KKKVSRSGLYRSP as substrate incubated for 40 mins in presence of [gamma-33ATP by radiometric scintillation counting analysis"}, "[3]": {"biological_target": "Tyrosine-protein kinase ABL1 (Homo sapiens, UniProt P00519, T315I)", "assay": "Inhibition of human recombinant ABL1 T315I mutant (27 to end residues) using EAIYAAPFAKKK as substrate incubated for 40 mins in presence of [gamma-33P]ATP by radiometric scintillation counting analysis"}, "[4]": {"assay": "Half life in rat liver microsomes measured upto 45 mins in presence of NADPH by LC-MS analysis", "type": "ADME, Microsome"}, "Activin receptor type-1B": {"biological_target": "Activin receptor type-1B (Homo sapiens, UniProt P36896)", "assay": "Inhibition of human recombinant ALK4 (150 to end residues) using casein as substrate incubated for 40 mins in presence of [gamma-33P]ATP by radiometric scintillation counting analysis"}, "[5]": {"assay": "Inhibition of human PKA using Kemptide as substrate incubated for 40 mins in presence of [gamma-33P]ATP by radiometric scintillation counting analysis"}, "[6]": {"biological_target": "MAP kinase-interacting serine/threonine-protein kinase 2 (Homo sapiens, UniProt Q9HBH9)", "sequence (Q9HBH9 whole entry)": "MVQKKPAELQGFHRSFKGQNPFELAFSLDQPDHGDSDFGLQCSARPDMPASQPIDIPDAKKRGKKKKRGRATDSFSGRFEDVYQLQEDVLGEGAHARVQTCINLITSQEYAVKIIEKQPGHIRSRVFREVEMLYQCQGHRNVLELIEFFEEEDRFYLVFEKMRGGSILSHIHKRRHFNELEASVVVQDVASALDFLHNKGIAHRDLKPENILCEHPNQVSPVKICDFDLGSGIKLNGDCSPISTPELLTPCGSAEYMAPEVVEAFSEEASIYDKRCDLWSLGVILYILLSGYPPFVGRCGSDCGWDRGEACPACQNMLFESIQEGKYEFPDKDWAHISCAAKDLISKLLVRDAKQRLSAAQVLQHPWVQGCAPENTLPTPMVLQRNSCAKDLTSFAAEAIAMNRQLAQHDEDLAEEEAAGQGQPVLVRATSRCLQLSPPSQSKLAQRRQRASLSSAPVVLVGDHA", "assay": "Inhibition of recombinant full length human MNK2 using myelin basic protein as substrate incubated for 40 mins in presence of [gamma-33ATP by radiometric scintillation counting analysis"}, "[7]": {"biological_target": "Serine/threonine-protein kinase N2 (Homo sapiens, UniProt Q16513)", "sequence (Q16513 whole entry)": "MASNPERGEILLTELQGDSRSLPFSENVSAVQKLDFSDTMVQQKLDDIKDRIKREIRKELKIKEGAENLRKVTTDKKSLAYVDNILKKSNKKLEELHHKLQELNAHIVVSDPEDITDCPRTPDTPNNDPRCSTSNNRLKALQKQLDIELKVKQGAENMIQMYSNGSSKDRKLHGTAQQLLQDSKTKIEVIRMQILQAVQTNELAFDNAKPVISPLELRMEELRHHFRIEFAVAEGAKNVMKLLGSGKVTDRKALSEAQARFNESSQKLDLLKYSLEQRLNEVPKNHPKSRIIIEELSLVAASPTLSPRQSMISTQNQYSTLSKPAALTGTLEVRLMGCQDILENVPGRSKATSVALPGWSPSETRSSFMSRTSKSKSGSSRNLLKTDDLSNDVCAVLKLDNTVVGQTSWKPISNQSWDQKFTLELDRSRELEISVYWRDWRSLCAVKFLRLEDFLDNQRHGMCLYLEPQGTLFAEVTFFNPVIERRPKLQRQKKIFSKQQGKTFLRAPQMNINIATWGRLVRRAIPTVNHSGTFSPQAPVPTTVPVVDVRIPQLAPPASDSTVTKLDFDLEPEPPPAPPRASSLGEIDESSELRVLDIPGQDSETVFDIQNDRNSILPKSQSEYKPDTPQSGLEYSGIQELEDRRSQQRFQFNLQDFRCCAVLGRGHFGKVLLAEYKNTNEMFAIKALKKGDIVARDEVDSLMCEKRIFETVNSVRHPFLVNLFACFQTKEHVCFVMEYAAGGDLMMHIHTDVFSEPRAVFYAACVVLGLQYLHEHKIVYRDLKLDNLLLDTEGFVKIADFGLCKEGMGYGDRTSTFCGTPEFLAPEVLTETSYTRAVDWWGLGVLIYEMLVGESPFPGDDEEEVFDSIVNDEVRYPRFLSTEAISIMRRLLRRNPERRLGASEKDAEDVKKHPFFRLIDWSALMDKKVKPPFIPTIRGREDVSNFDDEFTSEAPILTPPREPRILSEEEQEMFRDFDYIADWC", "assay": "Inhibition of recombinant human PRK2 (501 to end residues) using AKRRRLSSLRA as substrate incubated for 40 mins in presence of [gamma33P]ATP by radiometric scintillation counting analysis"}, "[8]": {"biological_target": "Tyrosine-protein kinase SYK (Homo sapiens, UniProt P43405)", "assay": "Inhibition of recombinant human full length SYK using poly(Glu, Tyr) 4:1 as substrate incubated for 40 mins in presence of [gamma33P]ATP by radiometric scintillation counting analysis"}, "[9]": {"biological_target": "Calcium/calmodulin-dependent protein kinase type 1B (Homo sapiens, UniProt Q6P2M8)", "sequence (Q6P2M8 whole entry)": "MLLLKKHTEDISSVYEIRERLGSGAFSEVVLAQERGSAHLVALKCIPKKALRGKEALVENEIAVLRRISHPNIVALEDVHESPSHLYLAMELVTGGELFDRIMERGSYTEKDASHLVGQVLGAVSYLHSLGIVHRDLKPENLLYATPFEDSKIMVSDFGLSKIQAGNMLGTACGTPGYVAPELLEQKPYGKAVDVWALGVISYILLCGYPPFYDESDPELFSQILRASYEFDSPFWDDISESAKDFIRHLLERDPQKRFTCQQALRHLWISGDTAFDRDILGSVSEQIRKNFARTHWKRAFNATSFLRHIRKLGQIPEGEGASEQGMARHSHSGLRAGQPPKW", "assay": "Inhibition of recombinant full length human CaMK1beta using KKLRRTLSFAEP as substrate incubated for 40 mins in presence of [gamma-33ATP] by radiometric scintillation counting analysis"}, "[10]": {"biological_target": "Bone morphogenetic protein receptor type-2 (Homo sapiens, UniProt Q13873)", "assay": "Inhibition of human recombinant BMPR2 (172 to 734 residues) using myelin basic protein as substrate incubated for 120 mins in presence of [gamma-33ATP] by radiometric scintillation counting analysis"}, "SRSF protein kinase 1": {"biological_target": "SRSF protein kinase 1 (Homo sapiens, UniProt Q96SB4)", "assay": "Inhibition of recombinant human SRPK1 (2 to end residues) using RSRSRSRSRSRSRSR as substrate incubated for 40 mins in presence of [gamma33P]ATP by radiometric scintillation counting analysis"}, "[11]": {"biological_target": "Calcium/calmodulin-dependent protein kinase type 1D (Homo sapiens, UniProt Q8IU85)", "assay": "Inhibition of recombinant full length human CaMK1delta using calmodulin as substrate incubated for 40 mins in presence of [gamma-33ATP] by radiometric scintillation counting analysis"}, "[12]": {"biological_target": "Serine/threonine-protein kinase ULK1 (Homo sapiens, UniProt O75385)", "assay": "Inhibition of recombinant human ULK1 (1 to 314 residues) using casein as substrate incubated for 40 mins in presence of [gamma33P]ATP by radiometric scintillation counting analysis"}, "[13]": {"biological_target": "Ribosomal protein S6 kinase alpha-5 (Homo sapiens, UniProt O75582)", "assay": "Inhibition of recombinant human MSK1 (2 to end residues) using GRPRTSSFAEGKK as substrate incubated for 40 mins in presence of [gamma-33ATP by radiometric scintillation counting analysis"}, "[14]": {"biological_target": "Serine/threonine-protein kinase 35 (Homo sapiens, UniProt Q8TDR2)", "sequence (Q8TDR2 whole entry)": "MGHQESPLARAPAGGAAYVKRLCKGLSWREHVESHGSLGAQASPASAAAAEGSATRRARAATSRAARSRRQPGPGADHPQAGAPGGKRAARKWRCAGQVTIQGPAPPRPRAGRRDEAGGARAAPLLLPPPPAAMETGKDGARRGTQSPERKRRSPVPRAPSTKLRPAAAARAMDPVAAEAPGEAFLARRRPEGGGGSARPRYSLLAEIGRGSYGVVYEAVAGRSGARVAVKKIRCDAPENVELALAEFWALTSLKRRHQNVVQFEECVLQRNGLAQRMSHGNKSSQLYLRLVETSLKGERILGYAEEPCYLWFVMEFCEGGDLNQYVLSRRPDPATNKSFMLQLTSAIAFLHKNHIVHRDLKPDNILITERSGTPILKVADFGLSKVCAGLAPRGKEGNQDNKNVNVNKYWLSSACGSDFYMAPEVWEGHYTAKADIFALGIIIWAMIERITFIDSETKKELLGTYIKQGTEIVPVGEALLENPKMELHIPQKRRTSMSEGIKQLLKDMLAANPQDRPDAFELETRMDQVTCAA", "assay": "Inhibition of recombinant full length human CLIK1 at 10 uM using RSRSRSRSRSRS as substrate measured after 40 mins in presence of [gamma33P]ATP by radiometric scintillation counting analysis"}, "[15]": {"biological_target": "5'-AMP-activated protein kinase catalytic subunit alpha-1 (Homo sapiens, UniProt Q13131)", "assay": "Inhibition of human full length AMPKalpha1 recombinant using AMARAASAAALAR as substrate incubated for 40 mins in presence of [gamma-33ATP] by radiometric scintillation counting analysis"}, "[16]": {"biological_target": "Serine/threonine-protein kinase N1 (Homo sapiens, UniProt Q16512, V901I)", "assay": "Inhibition of recombinant human PRK1 V901I (498 to end residues) using KKLNRTLSFAEPG as substrate incubated for 40 mins in presence of [gamma33P]ATP by radiometric scintillation counting analysis"}, "Myosin-IIIb": {"biological_target": "Myosin-IIIb (Homo sapiens, UniProt Q8WXR4)", "sequence (Q8WXR4 whole entry, the tested form may be a part)": "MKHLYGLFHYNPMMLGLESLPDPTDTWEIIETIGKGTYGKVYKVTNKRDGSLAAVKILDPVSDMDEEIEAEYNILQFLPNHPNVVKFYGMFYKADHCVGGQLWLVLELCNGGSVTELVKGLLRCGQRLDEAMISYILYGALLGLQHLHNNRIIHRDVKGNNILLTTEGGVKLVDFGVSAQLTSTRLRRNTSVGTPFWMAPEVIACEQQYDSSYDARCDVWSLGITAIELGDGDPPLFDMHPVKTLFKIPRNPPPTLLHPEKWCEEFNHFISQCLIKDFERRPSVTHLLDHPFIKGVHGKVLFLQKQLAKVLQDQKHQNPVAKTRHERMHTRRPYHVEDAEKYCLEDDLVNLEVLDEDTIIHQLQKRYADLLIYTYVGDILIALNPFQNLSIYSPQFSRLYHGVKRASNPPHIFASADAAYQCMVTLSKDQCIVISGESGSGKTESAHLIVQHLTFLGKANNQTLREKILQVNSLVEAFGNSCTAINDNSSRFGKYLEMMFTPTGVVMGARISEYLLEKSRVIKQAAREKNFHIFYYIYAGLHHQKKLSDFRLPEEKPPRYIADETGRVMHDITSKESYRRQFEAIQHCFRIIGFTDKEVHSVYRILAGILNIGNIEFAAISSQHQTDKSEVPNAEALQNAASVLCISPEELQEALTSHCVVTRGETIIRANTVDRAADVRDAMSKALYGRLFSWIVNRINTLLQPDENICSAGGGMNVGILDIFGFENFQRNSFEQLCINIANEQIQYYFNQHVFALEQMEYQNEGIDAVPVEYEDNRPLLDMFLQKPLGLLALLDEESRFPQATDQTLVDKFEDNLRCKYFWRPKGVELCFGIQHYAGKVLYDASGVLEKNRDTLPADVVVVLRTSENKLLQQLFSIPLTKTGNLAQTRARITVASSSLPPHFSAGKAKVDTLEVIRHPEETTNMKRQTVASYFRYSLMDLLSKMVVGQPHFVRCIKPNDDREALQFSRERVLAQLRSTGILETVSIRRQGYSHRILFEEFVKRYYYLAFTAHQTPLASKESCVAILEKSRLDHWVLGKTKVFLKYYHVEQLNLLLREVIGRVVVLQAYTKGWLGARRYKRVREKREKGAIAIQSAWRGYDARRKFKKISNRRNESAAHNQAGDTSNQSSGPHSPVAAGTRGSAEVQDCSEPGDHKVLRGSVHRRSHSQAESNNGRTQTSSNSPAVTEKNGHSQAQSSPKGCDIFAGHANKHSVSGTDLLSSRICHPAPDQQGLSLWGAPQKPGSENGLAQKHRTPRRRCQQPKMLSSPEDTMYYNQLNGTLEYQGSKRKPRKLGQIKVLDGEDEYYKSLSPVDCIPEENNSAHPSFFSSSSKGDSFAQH", "assay": "Inhibition of recombinant human MYO3B (1 to 326 residues) using RLGRDKYKTLRQI as substrate measured after 40 mins in presence of [gamma33P]ATP by radiometric scintillation counting analysis"}, "[17]": {"biological_target": "Serine/threonine-protein kinase D3 (Homo sapiens, UniProt O94806)", "sequence (O94806 whole entry)": "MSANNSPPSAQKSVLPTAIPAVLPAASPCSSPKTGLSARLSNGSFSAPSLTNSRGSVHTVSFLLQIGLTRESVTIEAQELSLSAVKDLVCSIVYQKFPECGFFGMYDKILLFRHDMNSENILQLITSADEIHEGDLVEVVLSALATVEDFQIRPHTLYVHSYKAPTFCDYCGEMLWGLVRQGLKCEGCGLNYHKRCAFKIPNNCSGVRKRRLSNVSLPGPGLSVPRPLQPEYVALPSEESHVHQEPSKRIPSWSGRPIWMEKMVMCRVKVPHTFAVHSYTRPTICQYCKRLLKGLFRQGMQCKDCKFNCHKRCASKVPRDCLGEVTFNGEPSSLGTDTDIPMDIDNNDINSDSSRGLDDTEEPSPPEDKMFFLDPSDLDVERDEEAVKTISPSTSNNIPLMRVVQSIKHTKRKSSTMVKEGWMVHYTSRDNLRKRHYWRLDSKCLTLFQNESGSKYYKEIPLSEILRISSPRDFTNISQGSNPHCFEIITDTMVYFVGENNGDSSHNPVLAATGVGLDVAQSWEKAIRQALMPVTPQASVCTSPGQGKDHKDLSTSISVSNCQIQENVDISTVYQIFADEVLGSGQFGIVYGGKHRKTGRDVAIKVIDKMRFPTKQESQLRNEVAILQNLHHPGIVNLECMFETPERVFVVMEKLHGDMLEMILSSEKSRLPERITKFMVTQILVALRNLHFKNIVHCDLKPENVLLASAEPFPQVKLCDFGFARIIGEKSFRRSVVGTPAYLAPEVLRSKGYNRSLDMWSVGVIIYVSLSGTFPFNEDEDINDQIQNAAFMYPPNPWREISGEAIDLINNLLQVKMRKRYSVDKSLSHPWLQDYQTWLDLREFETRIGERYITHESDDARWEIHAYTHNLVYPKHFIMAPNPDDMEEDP", "assay": "Inhibition of recombinant full-length human PKD3 using KKLRRTLSVA as substrate incubated for 40 mins in presence of [gamma33P]ATP by radiometric scintillation counting analysis"}, "[18]": {"biological_target": "Mitogen-activated protein kinase 8 (Homo sapiens, UniProt P45983)", "assay": "Inhibition of recombinant full length human JNK1alpha1 using ATF2 as substrate after 40 mins by [gamma-33ATP] by radiometric scintillation counting analysis"}, "[19]": {"biological_target": "cGMP-dependent protein kinase 2 (Homo sapiens, UniProt Q13237)", "assay": "Inhibition of recombinant full-length human PRKG2 using KKLRRTLSFAEPG as substrate incubated for 40 mins in presence of [gamma33P]ATP by radiometric scintillation counting analysis"}, "[20]": {"biological_target": "Serine/threonine-protein kinase PAK 1 (Homo sapiens, UniProt Q13153)", "assay": "Inhibition of recombinant human PAK1 (150 to end residues) using RRRLSFAEPG as substrate measured after 40 mins in presence of [gamma33P]ATP by radiometric scintillation counting analysis"}, "[21]": {"biological_target": "Cyclin-dependent kinase-like 2 (Homo sapiens, UniProt Q92772)", "assay": "Inhibition of recombinant full length human CDKL2 in presence of 10 uM ATP by radiometric scintillation counting analysis"}, "[22]": {"biological_target": "Dual specificity mitogen-activated protein kinase kinase 1 (Homo sapiens, UniProt Q02750)", "sequence (Q02750 whole entry)": "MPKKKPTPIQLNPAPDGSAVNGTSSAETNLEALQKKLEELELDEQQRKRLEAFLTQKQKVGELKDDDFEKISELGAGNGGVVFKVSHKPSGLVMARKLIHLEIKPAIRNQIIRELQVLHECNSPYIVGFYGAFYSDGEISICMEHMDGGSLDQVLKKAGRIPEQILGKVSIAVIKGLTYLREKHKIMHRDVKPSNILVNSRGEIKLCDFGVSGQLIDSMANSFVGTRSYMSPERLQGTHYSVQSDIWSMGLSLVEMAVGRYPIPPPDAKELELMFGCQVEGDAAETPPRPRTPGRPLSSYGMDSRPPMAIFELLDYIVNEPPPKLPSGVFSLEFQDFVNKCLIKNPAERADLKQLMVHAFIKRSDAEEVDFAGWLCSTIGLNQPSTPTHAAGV", "assay": "Inhibition of recombinant full length human MEK1 using inactive MAPK2 as substrate incubated for 40 mins in presence of [gamma-33ATP by radiometric scintillation counting analysis"}, "[23]": {"assay": "Inhibition of human MAPK2"}, "[24]": {"biological_target": "Cyclin-dependent kinase 5/CDK5 activator 1 (Homo sapiens, UniProt Q00535)", "assay": "Inhibition of recombinant full length human CDK5/p35 using histone H1 as substrate incubated for 40 mins in presence of [gamma-33ATP] by radiometric scintillation counting analysis", "type": "protein-complex assay"}}, "data": [{"smiles": "CN(C)c1ccc(C(=O)Nc2cccc(NC(=O)COc3ccc4c(=O)ccoc4c3)c2)cc1", "values": [{"measurement": "IC50", "setting": "[1]", "result": "> 10", "unit": "µM"}, {"measurement": "IC50", "setting": "[2]", "result": "> 10", "unit": "µM"}, {"measurement": "IC50", "setting": "[3]", "result": "> 10", "unit": "µM"}, {"measurement": "half-life", "setting": "[4]", "result": 1.1, "unit": "min"}, {"measurement": "IC50", "setting": "Activin receptor type-1B", "result": "> 10", "unit": "µM"}, {"measurement": "IC50", "setting": "[5]", "result": "> 10", "unit": "µM"}, {"measurement": "IC50", "setting": "[6]", "result": "> 10", "unit": "µM"}, {"measurement": "IC50", "setting": "[7]", "result": "> 10", "unit": "µM"}, {"measurement": "IC50", "setting": "[8]", "result": "> 10", "unit": "µM"}, {"measurement": "IC50", "setting": "[9]", "result": "> 10", "unit": "µM"}, {"measurement": "IC50", "setting": "[10]", "result": "> 10", "unit": "µM"}, {"measurement": "IC50", "setting": "SRSF protein kinase 1", "result": "> 10", "unit": "µM"}, {"measurement": "IC50", "setting": "[11]", "result": "> 10", "unit": "µM"}, {"measurement": "IC50", "setting": "[12]", "result": "> 10", "unit": "µM"}, {"measurement": "IC50", "setting": "[13]", "result": "> 10", "unit": "µM"}, {"measurement": "IC50", "setting": "[14]", "result": "> 10", "unit": "µM"}, {"measurement": "IC50", "setting": "[15]", "result": "> 10", "unit": "µM"}, {"measurement": "IC50", "setting": "[16]", "result": "> 10", "unit": "µM"}, {"measurement": "IC50", "setting": "Myosin-IIIb", "result": "> 10", "unit": "µM"}, {"measurement": "IC50", "setting": "[17]", "result": "> 10", "unit": "µM"}, {"measurement": "IC50", "setting": "[18]", "result": "> 10", "unit": "µM"}, {"measurement": "IC50", "setting": "[19]", "result": "> 10", "unit": "µM"}, {"measurement": "IC50", "setting": "[20]", "result": "> 10", "unit": "µM"}, {"measurement": "IC50", "setting": "[21]", "result": "> 10", "unit": "µM"}, {"measurement": "IC50", "setting": "[22]", "result": "> 10", "unit": "µM"}, {"measurement": "IC50", "setting": "[23]", "result": "> 10", "unit": "µM"}, {"measurement": "IC50", "setting": "[24]", "result": "> 10", "unit": "µM"}]}]}
